Experimental data reported in patent US4377576A, “5-(Heterocyclic amino-propionyl)-5,10-dihydro-11H-dibenzo[b,e][1,4]diazepin-11-ones” (Karl Thomae Gesellschaft mit beschrankter Haftung, priority 1980, dated 1983).
Counter-ions that a name gives are not always drawn.

Key:
[1] = system: gastric secretion (free and total hydrochloric acid in the gastric fluid); assay: Inhibition of gastric fluid secretion (liberation of acid), pylorus ligature, method of Shay et al.; type: in vivo, male Crl:COBS (WI) BR Albino rats; conditions: Rat, i.d., 4 hours after pylorus ligature
Procedure: The inhibiting activity on the gastric secretion was tested in male Crl:COBS (WI) BR Albino rats having a weight of 100 to 125 gm, according to the method of Shay et al., Gastroenterology 26, 906 (1954). The rats were fasted for 24 hours and then anesthetized with ether. The […] was opened, and the pylorus was tied up. […] The control animals received the same volume of the vehicle (0.2% methyl cellulose solution). After 4 hours the animals were killed by dislocating the neck vertebra, the stomachs were removed, opened along the great curvature and the gastric fluid collected. The free and total hydrochloric acid in the gastric fluid was measured by titration with N/10 sodium hydroxide solution. The results were determined in percent from the data received from the treated and untreated animals. The ED50 values were calculated by linear regression analysis of the probits according to the method described by D. J. Finney, Probit Analysis, Cambridge University Press, 1971.

stomach ulcers = assay: Inhibiting effect on the formation of stomach ulcers (acetyl salicylic acid and close-meshed wire cage), method of P. A. Brown; type: in vivo, female Crl:COBS-CD(SD)Br rats; conditions: po, 0.5 h; Rat, p.o., acetyl salicylic acid 30 min after compound, then wire cage; read-out: Ulcer Inhibition ED50
Procedure: The inhibiting effect on the formation of stomach ulcers was tested in female Crl:COBS-CD(SD)Br rats having a weight of 130 to 160 gm, according to the method of P. A. Brown, European J. Pharmacol. 51, 275 (1978). The animals were fasted for 24 hours, and the compounds were suspended in a 0.2% methyl cellulose solution and administered to the animals using an esophageal tube. After 30 minutes the animals received acetyl salicylic acid perorally at a dose of 8 mg/kg, and after another 30 minutes the animals were placed at room temperature into a close-meshed wire cage. After one hour the animals were killed by dislocating the neck vertebra, the stomach was removed, opened by cutting along the great curvature, the inner side was outwardly spread out on a test tube, and the presence of stomach ulcers was recorded. The activity of the compounds was determined by counting the numbers of stomachs which were free of ulcers. The ED50 was calculated according to the method described by J. T. Litchfield and F. Wilcoxon, J. Pharmac. Exp. Therap. 96, 99 (1949).

[2] = Mydriasis: effect on the size of the pupil; parameters: species or system male Crl:COBS-CD(SD)BR rats; conditions: in vivo, po; Rat, percent of maximum pupil diameter obtained by atropine, 30-120 min
Procedure: The effect on the size of the pupil was tested in male Crl:COBS-CD(SD)BR rats having a body weight of 100 to 130 gm by using a […]-binocular microscope with a graduated lens and a 10-fold magnification. The compounds were suspended in a 0.2% methyl cellulose solution and administered using an esophageal tube; groups of 5 animals were used per dose. The control animals received the same volume (1 ml/100 gm of body weight) of the vehicle. The diameter of the pupil was measured before administering the test compound, and 30, 60, 90 and 120 minutes after the treatment. The activity was expressed in percent with regard to the maximum diameter obtained by means of atropine. The ED50 was determined by linear regression analysis of the probits according to the method described by D. J. Finney (supra).

Acute toxicity = conditions: in vivo, po; Mouse
Procedure: The acute toxicity was determined in male CrL-COBS-CD-I(ICR) mice of an average body weight of 22 to 24 gm which had been fasted for 24 hours. Different doses of each compound were administered to groups of 5 to 10 animals by means of an esophageal tube, and the LD50 -values were calculated by the method of D. J. Finney (supra).

| SMILES | ED50 [1] | ED50 (stomach ulcers) | ED50 [2] | LD50 (Acute toxicity) |
| --- | --- | --- | --- | --- |
| Cl.O=C1Nc2ccccc2N(C(=O)CCN2CCCC2)c2ccccc21 [A, 5,10-dihydro-5-(3-pyrrolidino-propionyl)-11H-dibenzo[b,e][1,4]diazepin-11-one hydrochloride] | 0.2 mg/kg | 1.27 mg/kg | 3.61 mg/kg | 609 mg/kg |
| O=C1Nc2ccccc2N(C(=O)CN2CCCCC2)c2ccccc21 [F, 5,10-dihydro-5-(piperidino-acetyl)-11H-dibenzo[b,e,][1,4]diazepin-11-one] | 6.17 mg/kg | 10.4 mg/kg | 5.82 mg/kg | 600 mg/kg |
| CN1C(=O)c2ccccc2N(C(=O)CN2CCCC2)c2ccccc21 [E, 5,10-dihydro-10-methyl-5-(pyrrolidino-acetyl)-11H-dibenzo[b,e,][1,4]diazepin-11-one hydrochloride] | 18.1 mg/kg | 8.4 mg/kg | 9.84 mg/kg | 816 mg/kg |
| Cl.O=C1Nc2ccccc2N(C(=O)CCN2CCCCC2)c2ccccc21 [C, 5,10-dihydro-5-(3-piperidino-propionyl)-11H-dibenzo[b,e][1,4]diazepin-11-one hydrochloride] | 1.6 mg/kg | 2.1 mg/kg | 3.84 mg/kg | 813 mg/kg |
| CN1C(=O)c2ccccc2N(C(=O)CCN2CCCC2)c2ccccc21 [B, 5,10-dihydro-10-methyl-5-(3-pyrrolidino-propionyl)-11H-dibenzo[b,e,][1,4]diazepin-11-one hydrochloride] | 0.73 mg/kg | 2.05 mg/kg |  | 574 mg/kg |
| O=C1Nc2ccccc2N(C(=O)CN2CCCC2)c2ccccc21 [D, 5,10-dihydro-5-(pyrrolidino-acetyl)-11H-dibenzo[b,e][1,4]diazepin-11-one] | 8.15 mg/kg | 10.2 mg/kg | 9.91 mg/kg | 860 mg/kg |
